Test results taken from patent publication US20190125888A1, “TARGETED CONJUGATES AND PARTICLES AND FORMULATIONS THEREOF” (priority 2015, published 2019).
Read-outs that look alike come from different tables or passages of the source.

Assays:
human SSTR2 = human SSTR2 (Homo sapiens, UniProt P30874); assay: Radioligand-receptor binding assay, [125I] somatostatin, membranes from SSTR2 expressing CHO-K1 cells
Method: These conjugates were also assessed in an in vitro assay evaluating binding to the somatostatin receptor 2 (SSTR2). A radioligand-receptor binding assay was conducted at Eurofins Panlabs (Taiwan) to determine the affinity of conjugates described herein to the SSTR2. The assay measures binding of radiolabeled ligand, [^125I] labeled somatostatin, to human SSTR2 using membrane preparations from SSTR2 expressing CHO-K1 cells. Membranes were incubated with radiolabeled somatostatin (0.03 nM) in the presence of conjugate/compound starting at a dose of 10 uM using 6× serial dilutions to obtain a 10-pt curve. After a four hour incubation, membranes were filtered and washed 3× and counted to determine the remaining [^125I] somatostatin bound to the receptor. IC50 values were determined by a non-linear, least squares regression analysis using MathIQ™ (ID Business Solutions Ltd., UK).

[1] = Ligand charge of maytansinoid conjugates; assay type: physicochemical
[2] = system: NCI-H524 (ATCC) human lung cancer cells; assay type: cell-based
Method: FIG. 1 is a graph of various conjugates represented as bars and showing on the Y-axis their activity in an H524 proliferation assay with and without competition by octreotide. […] This illustrates the suprprising finding that only maytansinoid conjugates show activity that is dependent on the receptor.
Conjugates were assessed in an in vitro assay evaluating inhibition of cell proliferation. NCI-H524 (ATCC) human lung cancer cells were plated in 96 well, V-bottomed plates (Costar) at a concentration of 5,000 cells/well and 24 hours later were treated with compound for 6 hours and further incubated 66 hours. Compound starting dose was 20 μM and three fold serial dilutions were done for a total of ten points. After 6 hours of treatment, cells were spun down, the drug containing media was removed, and fresh complete medium was added and used to resuspend the cells, which were spun again. After removal of the wash media, the cells were resuspended in complete medium, then transferred into white walled, flat bottomed 96 well plates. […] Proliferation was measured using CellTiter Glo reagent using the standard protocol (Promega) and a Glomax multi+detection system (Promega). Percent proliferation inhibition was calculated using the following formula: % inhibition=(control-treatment)/control*100. Control is defined as vehicle alone. IC50 curves were generated using the nonlinear regression analysis (four parameter) with GraphPad Prism 6.
Conjugates were tested for their activity dependence on the somatostatin receptor. Active agent Z in the conjugate was selected from auristatin, carbazitaxel, DM1, doxorubicin, platinum, SN-38 and vinblastine. Active agent Z is connected to octreotide with various linkers. Proliferation IC50 values of the conjugates were measured. Proliferation IC50 values of the conjugates without octreotide competition were also measured. The ratio of IC50 with octreotide competition and IC50 without octreotide competition is an indicator of whether activity is at least particially dependent on bind to the somatostatin receptor. […] Therefore, the activity of conjugates comprising DM1 is dependent on the binding to the somatostatin receptor.

[3] = read-out: H524 IC50 6 h, 6 hours treatment, further 66 hours incubation
[4] = read-out: H524 IC50 with 100 μM octreotide 6 h, with 100 μM octreotide competition, 6 h treatment

Sequence of human SSTR2 (P30874 whole entry): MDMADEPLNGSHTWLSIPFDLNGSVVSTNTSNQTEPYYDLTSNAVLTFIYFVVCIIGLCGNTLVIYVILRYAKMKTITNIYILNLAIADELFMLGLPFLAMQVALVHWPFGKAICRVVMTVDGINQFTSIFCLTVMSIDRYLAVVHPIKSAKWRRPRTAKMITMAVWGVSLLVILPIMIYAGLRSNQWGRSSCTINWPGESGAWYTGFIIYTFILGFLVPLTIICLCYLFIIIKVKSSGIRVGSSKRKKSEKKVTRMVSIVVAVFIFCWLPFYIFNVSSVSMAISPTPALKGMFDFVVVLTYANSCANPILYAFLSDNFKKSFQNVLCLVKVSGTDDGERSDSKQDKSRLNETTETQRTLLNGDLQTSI

Row | Compound | Ki (human SSTR2) [nM] | Ligand charge [1] | IC50 [2, 3] [nM] | IC50 [2, 4] [nM]
1 | COc1cc2cc(c1Cl)N(C)C(=O)C[C@H](OC(=O)[C@H](C)N(C)C(=O)CCC(C)(C)SSC[C@H](NC(=O)[C@@H]1CSSC[C@H](NC(=O)[C@@H](Cc3ccccc3)NC(=O)Nc3ccccc3)C(=O)N[C@@H](Cc3ccc(O)cc3)C(=O)N[C@H](Cc3c[nH]c4ccccc34)C(=O)N[C@@H](CCCCN)C(=O)N[C@@H]([C@@H](C)O)C(=O)N1)C(N)=O)[C@]1(C)O[C@H]1[C@H](C)[C@@H]1C[C@@](O)(NC(=O)O1)[C@H](OC)/C=C/C=C(\C)C2 [Conjugate 5] | 0.32 | +1 | 7.7 | 317
2 | COc1cc2cc(c1Cl)N(C)C(=O)C[C@H](OC(=O)[C@H](C)N(C)C(=O)CCSSC(C)(C)[C@@H](NC(=O)[C@@H]1CSSC[C@H](NC(=O)[C@H](N)Cc3ccccc3)C(=O)N[C@@H](Cc3ccc(O)cc3)C(=O)N[C@H](Cc3c[nH]c4ccccc34)C(=O)N[C@@H](CCCCN)C(=O)N[C@@H]([C@@H](C)O)C(=O)N1)C(N)=O)[C@]1(C)O[C@H]1[C@H](C)[C@@H]1C[C@@](O)(NC(=O)O1)[C@H](OC)/C=C/C=C(\C)C2 [Conjugate 8] | 0.79 | +2 | 270 | 467
3 | COc1cc2cc(c1Cl)N(C)C(=O)C[C@H](OC(=O)[C@H](C)N(C)C(=O)CCSSC(C)(C)[C@@H](NC(=O)[C@@H]1CSSC[C@H](NC(=O)[C@@H](Cc3ccccc3)NC(=O)NCc3ccccc3)C(=O)N[C@@H](Cc3ccc(O)cc3)C(=O)N[C@H](Cc3c[nH]c4ccccc34)C(=O)N[C@@H](CCCCN)C(=O)N[C@@H]([C@@H](C)O)C(=O)N1)C(N)=O)[C@]1(C)O[C@H]1[C@H](C)[C@@H]1C[C@@](O)(NC(=O)O1)[C@H](OC)/C=C/C=C(\C)C2 [Conjugate 9] | 3.15 | +1 | 208 | 815
4 | COc1cc2cc(c1Cl)N(C)C(=O)C[C@H](OC(=O)[C@H](C)N(C)C(=O)CCSSC(C)(C)[C@H](NC(=O)[C@@H]1CSSC[C@H](NC(=O)[C@@H](Cc3ccccc3)NC(=O)NCc3ccc(C(F)(F)F)cc3)C(=O)N[C@@H](Cc3ccc(O)cc3)C(=O)N[C@H](Cc3c[nH]c4ccccc34)C(=O)N[C@@H](CCCCN)C(=O)N[C@@H]([C@@H](C)O)C(=O)N1)C(N)=O)[C@]1(C)O[C@H]1[C@H](C)[C@@H]1C[C@@](O)(NC(=O)O1)[C@H](OC)/C=C/C=C(\C)C2 [Conjugate 15] | 0.077 | +1 | 17 | 262
5 | COc1cc2cc(c1Cl)N(C)C(=O)C[C@H](OC(=O)[C@H](C)N(C)C(=O)CCSSC(C)(C)[C@H](NC(=O)CC[C@H](NC(=O)[C@@H]1CSSC[C@H](NC(=O)[C@H](N)Cc3ccccc3)C(=O)N[C@@H](Cc3ccc(O)cc3)C(=O)N[C@H](Cc3c[nH]c4ccccc34)C(=O)N[C@@H](CCCCN)C(=O)N[C@@H]([C@@H](C)O)C(=O)N1)C(N)=O)C(N)=O)[C@]1(C)O[C@H]1[C@H](C)[C@@H]1C[C@@](O)(NC(=O)O1)[C@H](OC)/C=C/C=C(\C)C2 [Conjugate 18] | 0.18 | +2 | 19 | 353
6 | COc1cc2cc(c1Cl)N(C)C(=O)C[C@H](OC(=O)[C@H](C)N(C)C(=O)CCSSC[C@H](NC(=O)[C@@H]1CSSC[C@H](NC(=O)[C@@H](Cc3ccccc3)NC(=O)NC3CCCCC3)C(=O)N[C@@H](Cc3ccc(O)cc3)C(=O)N[C@H](Cc3c[nH]c4ccccc34)C(=O)N[C@@H](CCCCN)C(=O)N[C@@H]([C@@H](C)O)C(=O)N1)C(=O)NCc1ccccc1)[C@]1(C)O[C@H]1[C@H](C)[C@@H]1C[C@@](O)(NC(=O)O1)[C@H](OC)/C=C/C=C(\C)C2 [Conjugate 26] | 1.42 | +1 | 30 | 106
7 | COc1cc2cc(c1Cl)N(C)C(=O)C[C@H](OC(=O)[C@H](C)N(C)C(=O)CCSSC[C@H](NC(=O)[C@@H]1CSSC[C@H](NC(=O)[C@@H](Cc3ccccc3)NC(C)=O)C(=O)N[C@@H](Cc3ccc(O)cc3)C(=O)N[C@H](Cc3c[nH]c4ccccc34)C(=O)N[C@@H](CCCCN)C(=O)N[C@@H]([C@@H](C)O)C(=O)N1)C(N)=O)[C@]1(C)O[C@H]1[C@H](C)[C@@H]1C[C@@](O)(NC(=O)O1)[C@H](OC)/C=C/C=C(\C)C2 [Conjugate 27] | 0.15 | +1 | 17 | 49
8 | COc1cc2cc(c1Cl)N(C)C(=O)C[C@H](OC(=O)[C@H](C)N(C)C(=O)CCSSC[C@H](NC(=O)[C@@H]1CSSC[C@H](NC(=O)[C@@H](Cc3ccccc3)NC(=O)C(F)(F)F)C(=O)N[C@@H](Cc3ccc(O)cc3)C(=O)N[C@H](Cc3c[nH]c4ccccc34)C(=O)N[C@@H](CCCCN)C(=O)N[C@@H]([C@@H](C)O)C(=O)N1)C(N)=O)[C@]1(C)O[C@H]1[C@H](C)[C@@H]1C[C@@](O)(NC(=O)O1)[C@H](OC)/C=C/C=C(\C)C2 [Conjugate 29] | 0.23 | +1 | 5.7 | 28
9 | COc1cc2cc(c1Cl)N(C)C(=O)C[C@H](OC(=O)[C@H](C)N(C)C(=O)CCSSC[C@@H](NC(=O)[C@@H]1CSSC[C@H](NC(=O)[C@@H](Cc3ccccc3)NC(C)=O)C(=O)N[C@@H](Cc3ccc(O)cc3)C(=O)N[C@H](Cc3c[nH]c4ccccc34)C(=O)N[C@@H](CCCCN)C(=O)N[C@@H]([C@@H](C)O)C(=O)N1)C(N)=O)[C@]1(C)O[C@H]1[C@H](C)[C@@H]1C[C@@](O)(NC(=O)O1)[C@H](OC)/C=C/C=C(\C)C2 [Conjugate 31] | 0.21 | +1 |  | 
10 | COc1cc2cc(c1Cl)N(C)C(=O)C[C@H](OC(=O)[C@H](C)N(C)C(=O)CCSSC[C@@H](NC(=O)[C@@H]1CSSC[C@H](NC(=O)[C@@H](Cc3ccccc3)NC(=O)C(F)(F)F)C(=O)N[C@@H](Cc3ccc(O)cc3)C(=O)N[C@H](Cc3c[nH]c4ccccc34)C(=O)N[C@@H](CCCCN)C(=O)N[C@@H]([C@@H](C)O)C(=O)N1)C(N)=O)[C@]1(C)O[C@H]1[C@H](C)[C@@H]1C[C@@](O)(NC(=O)O1)[C@H](OC)/C=C/C=C(\C)C2 [Conjugate 32] | 0.82 | +1 | 33 | 98
11 | COC(=O)N[C@H](Cc1ccccc1)C(=O)N[C@H]1CSSC[C@@H](C(=O)N[C@@H](CSSCCC(=O)N(C)[C@@H](C)C(=O)O[C@H]2CC(=O)N(C)c3cc(cc(OC)c3Cl)C/C(C)=C/C=C/[C@@H](OC)[C@@]3(O)C[C@H](OC(=O)N3)[C@@H](C)[C@@H]3O[C@@]23C)C(N)=O)NC(=O)[C@H]([C@@H](C)O)NC(=O)[C@H](CCCCN)NC(=O)[C@@H](Cc2c[nH]c3ccccc23)NC(=O)[C@H](Cc2ccc(O)cc2)NC1=O [Conjugate 35] | 0.024 | +1 | 27 | 17
12 | CCNC(=O)N[C@H](Cc1ccccc1)C(=O)N[C@H]1CSSC[C@@H](C(=O)N[C@H](C(=O)N[C@@H](CSSCCC(=O)N(C)[C@@H](C)C(=O)O[C@H]2CC(=O)N(C)c3cc(cc(OC)c3Cl)C/C(C)=C/C=C/[C@@H](OC)[C@@]3(O)C[C@H](OC(=O)N3)[C@@H](C)[C@@H]3O[C@@]23C)C(N)=O)[C@@H](C)O)NC(=O)[C@H]([C@@H](C)O)NC(=O)[C@H](CCCCN)NC(=O)[C@@H](Cc2c[nH]c3ccccc23)NC(=O)[C@H](Cc2ccc(O)cc2)NC1=O [Conjugate 36] |  | +1 | 0.78 | 10
13 | CCNC(=O)N[C@H](Cc1ccccc1)C(=O)N[C@H]1CSSC[C@@H](C(=O)N[C@@H](CSSCCC(=O)N(C)[C@@H](C)C(=O)O[C@H]2CC(=O)N(C)c3cc(cc(OC)c3Cl)C/C(C)=C/C=C/[C@@H](OC)[C@@]3(O)C[C@H](OC(=O)N3)[C@@H](C)[C@@H]3O[C@@]23C)C(N)=O)NC(=O)[C@H]([C@@H](C)O)NC(=O)[C@H](CCCCN)NC(=O)[C@@H](Cc2c[nH]c3ccccc23)NC(=O)[C@H](Cc2ccc(O)cc2)NC1=O [Conjugate 39] | 0.07 | +1 | 1.3 | 12
14 | COc1cc2cc(c1Cl)N(C)C(=O)C[C@H](OC(=O)[C@H](C)N(C)C(=O)CCSSCCNC(=O)CC[C@H]1C(=O)N[C@@H](Cc3ccc(O)cc3)C(=O)N[C@H](Cc3c[nH]c4ccccc34)C(=O)N[C@@H](CCCCNC(=O)NCCCCCCN)C(=O)N[C@@H]([C@@H](C)O)C(=O)N[C@@H](Cc3ccccc3)C(=O)N1C)[C@]1(C)O[C@H]1[C@H](C)[C@@H]1C[C@@](O)(NC(=O)O1)[C@H](OC)/C=C/C=C(\C)C2 [Conjugate 55] | 110 | +1 |  | 
